Target: T1, catalytic domain of human Bub1 (amino acids 704-1085) (Homo sapiens, UniProt O43683)
T1 construct: catalytic domain of human Bub1 (amino acids 704-1085); His6 (N); made in house; host or cells: insect cells (Hi5)
Assay: Bub1 kinase assay (TR-FRET)
Type: biochemical
Details: 10 μM ATP, avg, read-out: Bub1 avg (IC50 [mol/l])
Outline: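 Readout is the 665/620 nm TR-FRET ratio from anti-phosphoserine antibody, Eu-labelled anti-mouse IgG and streptavidin-XL665, scaled between no-enzyme and uninhibited controls. Reaction: 1 μM biotinylated peptide, 10 μM ATP, 60 min, 22 °C, after 15 min compound preincubation with His6-Bub1 (704-1085, insect-expressed, ~200 ng/ml).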

T1 sequence (O43683 704-1085): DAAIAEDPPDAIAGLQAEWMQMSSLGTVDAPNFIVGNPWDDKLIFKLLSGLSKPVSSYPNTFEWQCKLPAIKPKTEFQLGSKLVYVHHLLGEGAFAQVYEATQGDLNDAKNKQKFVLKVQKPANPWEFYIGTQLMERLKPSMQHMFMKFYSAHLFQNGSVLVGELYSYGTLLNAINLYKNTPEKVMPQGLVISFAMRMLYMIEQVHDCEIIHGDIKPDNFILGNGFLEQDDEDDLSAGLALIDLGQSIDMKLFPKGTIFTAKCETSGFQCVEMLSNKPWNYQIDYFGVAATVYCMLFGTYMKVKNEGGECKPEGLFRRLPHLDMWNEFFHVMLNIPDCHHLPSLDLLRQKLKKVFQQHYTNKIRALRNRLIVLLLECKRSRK

Row | IC50 [µM] | SMILES
1 | > 20 | Cc1nsc(Nc2cnc(C(F)(F)F)cn2)c1C(=O)Nc1ccc(N(C)C)c(OCCCN(C)CCC(F)(F)F)c1 [Example 300, N-[4-(dimethylamino)-3-{3-[methyl(3,3,3-trifluoropropyl)amino]propoxy}phenyl]-3-methyl-5-{[5-(trifluoromethyl)pyrazin-2-yl]amino}-1,2-thiazole-4-carboxamide]
2 | > 20 | Cc1nsc(Nc2cnc(C(F)(F)F)cn2)c1C(=O)Nc1ccc(F)c(OCCCN(C)CC(F)F)c1 [Example 301, N-(3-{3-[(2,2-difluoroethyl)(methyl)amino]propoxy}-4-fluorophenyl)-3-methyl-5-{[5-(trifluoromethyl)pyrazin-2-yl]amino}-1,2-thiazole-4-carboxamide]
3 | > 20 | Cc1nsc(Nc2cnc(C(F)(F)F)cn2)c1C(=O)Nc1ccc(F)c(OCCCN(C)CC(F)(F)F)c1 [Example 302, N-(4-fluoro-3-{3-[methyl(2,2,2-trifluoroethyl)amino]propoxy}phenyl)-3-methyl-5-{[5-(trifluoromethyl)pyrazin-2-yl]amino}-1,2-thiazole-4-carboxamide]
4 | ≥ 20 | Cc1nsc(Nc2cnc(C(F)(F)F)cn2)c1C(=O)Nc1ccc(F)c(OCCCN(C)CCC(F)(F)F)c1 [Example 303, N-(4-fluoro-3-{3-[methyl(3,3,3-trifluoropropyl)amino]propoxy}phenyl)-3-methyl-5-{[5-(trifluoromethyl)pyrazin-2-yl]amino}-1,2-thiazole-4-carboxamide]
5 | > 20 | Cc1nsc(Nc2cncc(C(F)(F)F)n2)c1C(=O)Nc1ccc(OC2CCN(CCC(F)(F)F)CC2)nc1 [Example 304, 3-methyl-5-{[6-(trifluoromethyl)pyrazin-2-yl]amino}-N-(6-{[1-(3,3,3-trifluoropropyl)piperidin-4-yl]oxy}pyridin-3-yl)-1,2-thiazole-4-carboxamide]
6 | 19 | Cc1nsc(Nc2cnc(C(F)(F)F)cn2)c1C(=O)Nc1ccc(OCCNCC(F)F)nc1 [Example 305, N-(6-{2-[(2,2-difluoroethyl)amino]ethoxy}pyridin-3-yl)-3-methyl-5-{[5-(trifluoromethyl)pyrazin-2-yl]amino}-1,2-thiazole-4-carboxamide]
7 | ≥ 20 | Cc1nsc(Nc2cnc(C(F)(F)F)cn2)c1C(=O)Nc1ccc(F)c(OCCCNCC(F)(F)F)c1 [Example 306, N-(4-fluoro-3-{3-[(2,2,2-trifluoroethyl)amino]propoxy}phenyl)-3-methyl-5-{[5-(trifluoromethyl)pyrazin-2-yl]amino}-1,2-thiazole-4-carboxamide]
8 | ≥ 20 | Cc1nsc(Nc2cnc(C(F)(F)F)cn2)c1C(=O)Nc1ccc(F)c(OCCCNCCC(F)(F)F)c1 [Example 307, N-(4-fluoro-3-{3-[(3,3,3-trifluoropropyl)amino]propoxy}phenyl)-3-methyl-5-{[5-(trifluoromethyl)pyrazin-2-yl]amino}-1,2-thiazole-4-carboxamide]
9 | ≥ 20 | Cc1nsc(Nc2cnc(C(F)(F)F)cn2)c1C(=O)Nc1ccc(F)c(OCC2CCN(CC(F)F)CC2)c1 [Example 308, N-(3-{[1-(2,2-difluoroethyl)piperidin-4-yl]methoxy}-4-fluorophenyl)-3-methyl-5-{[5-(trifluoromethyl)pyrazin-2-yl]amino}-1,2-thiazole-4-carboxamide]
10 | ≥ 20 | Cc1nsc(Nc2cnc(C(F)(F)F)cn2)c1C(=O)Nc1ccc(F)c(OCC2CCN(CCF)CC2)c1 [Example 309, N-(4-fluoro-3-{[1-(2-fluoroethyl)piperidin-4-yl]methoxy}phenyl)-3-methyl-5-{[5-(trifluoromethyl)pyrazin-2-yl]amino}-1,2-thiazole-4-carboxamide]
11 | ≥ 20 | Cc1nsc(Nc2cnc(C(F)(F)F)cn2)c1C(=O)Nc1ccc(F)c(OCC2CCN(CC(F)(F)F)CC2)c1 [Example 310, N-(4-fluoro-3-{[1-(2,2,2-trifluoroethyl)piperidin-4-yl]methoxy}phenyl)-3-methyl-5-{[5-(trifluoromethyl)pyrazin-2-yl]amino}-1,2-thiazole-4-carboxamide]
12 | > 20 | Cc1nsc(Nc2cnc(C(F)(F)F)cn2)c1C(=O)Nc1ccc(F)c(OCC2CCN(CCC(F)(F)F)CC2)c1 [Example 311, N-(4-fluoro-3-{[1-(3,3,3-trifluoropropyl)piperidin-4-yl]methoxy}phenyl)-3-methyl-5-{[5-(trifluoromethyl)pyrazin-2-yl]amino}-1,2-thiazole-4-carboxamide]
13 | ≥ 20 | Cc1nsc(Nc2cnc(C(F)(F)F)cn2)c1C(=O)Nc1ccc(F)c(OCC2CCN(C(CF)CF)CC2)c1 [Example 312, N-(3-{[1-(1,3-difluoropropan-2-yl)piperidin-4-yl]methoxy}-4-fluorophenyl)-3-methyl-5-{[5-(trifluoromethyl)pyrazin-2-yl]amino}-1,2-thiazole-4-carboxamide]
14 | ≥ 20 | Cc1nsc(Nc2cnc(C(F)(F)F)cn2)c1C(=O)Nc1ccc(OC2CCN(C(CF)CF)C2)nc1 (stereo not drawn) [Example 313, N-(6-{[1-(1,3-difluoropropan-2-yl)pyrrolidin-3-yl]oxy}pyridin-3-yl)-3-methyl-5-{[5-(trifluoromethyl)pyrazin-2-yl]amino}-1,2-thiazole-4-carboxamide]
15 | ≥ 20 | Cc1nsc(Nc2cnc(C(F)(F)F)cn2)c1C(=O)Nc1ccc(F)c(OC2CCN(CC(F)F)C2)c1 (stereo not drawn) [Example 314, N-(3-{[1-(2,2-difluoroethyl)pyrrolidin-3-yl]oxy}-4-fluorophenyl)-3-methyl-5-{[5-(trifluoromethyl)pyrazin-2-yl]amino}-1,2-thiazole-4-carboxamide]
16 | ≥ 20 | Cc1nsc(Nc2cnc(C(F)(F)F)cn2)c1C(=O)Nc1ccc(F)c(OC2CCN(CC(F)(F)F)C2)c1 (stereo not drawn) [Example 315, N-(4-fluoro-3-{[1-(2,2,2-trifluoroethyl)pyrrolidin-3-yl]oxy}phenyl)-3-methyl-5-{[5-(trifluoromethyl)pyrazin-2-yl]amino}-1,2-thiazole-4-carboxamide]
17 | ≥ 20 | Cc1nsc(Nc2cnc(C(F)(F)F)cn2)c1C(=O)Nc1ccc(F)c(OCC2CCN(CC(F)F)C2)c1 (stereo not drawn) [Example 316, N-(3-{[1-(2,2-difluoroethyl)pyrrolidin-3-yl]methoxy}-4-fluorophenyl)-3-methyl-5-{[5-(trifluoromethyl)pyrazin-2-yl]amino}-1,2-thiazole-4-carboxamide]
18 | > 20 | Cc1nsc(Nc2cnc(C(F)(F)F)cn2)c1C(=O)Nc1ccc(F)c(OCC2CCN(CCF)C2)c1 (stereo not drawn) [Example 317, N-(4-fluoro-3-{[1-(2-fluoroethyl)pyrrolidin-3-yl]methoxy}phenyl)-3-methyl-5-{[5-(trifluoromethyl)pyrazin-2-yl]amino}-1,2-thiazole-4-carboxamide]
19 | ≥ 20 | Cc1nsc(Nc2cnc(C(F)(F)F)cn2)c1C(=O)Nc1ccc(F)c(OCC2CCN(C(CF)CF)C2)c1 (stereo not drawn) [Example 320, N-(3-{[1-(1,3-difluoropropan-2-yl)pyrrolidin-3-yl]methoxy}-4-fluorophenyl)-3-methyl-5-{[5-(trifluoromethyl)pyrazin-2-yl]amino}-1,2-thiazole-4-carboxamide]
20 | 14 | Cc1nsc(Nc2cnc(C(F)(F)F)cn2)c1C(=O)Nc1ccc(OCCNCCF)nc1 [Example 321, N-(6-{2-[(2-fluoroethyl)amino]ethoxy}pyridin-3-yl)-3-methyl-5-{[5-(trifluoromethyl)pyrazin-2-yl]amino}-1,2-thiazole-4-carboxamide]
21 | ≥ 20 | Cc1nsc(Nc2cnc(C(F)(F)F)cn2)c1C(=O)Nc1ccc(OCCNCC(F)(F)F)nc1 [Example 322, 3-methyl-N-(6-{2-[(2,2,2-trifluoroethyl)amino]ethoxy}pyridin-3-yl)-5-{[5-(trifluoromethyl)pyrazin-2-yl]amino}-1,2-thiazole-4-carboxamide]
